Results taken from patent US8349880B2, “Bicyclic compounds for the reduction of beta-amyloid production” (Bristol-Myers Squibb Company, priority 2009, dated 2013).
pIC50: −log10 of the molar value.

System: Aβ1-42 production
Assay: Cellular assay for inhibition of Aβ1-42 production (H4 APP751 SWE clone 8.20)
Format: cell-based
Conditions: 19 h, H4 APP751 SWE clone 8.20 cells, 19 h incubation; read-out: Activity Rating (Aβ42 cellular IC50, given as a number)
In short: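 H4 cells stably expressing APP751 with the Swedish mutation (1.5×10^4 cells/well) incubated with compound for 19 h at 37° C in DMEM with 0.0125% BSA. Secreted Aβ42 measured overnight at 4° C by HTRF-type pairing of 565 (Aβ42 neoepitope) and 26D6 (N-terminal) antibodies. IC50 from curve fit.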

pIC50	SMILES
6.85	COc1cc(Nc2nc3c(s2)CCCC3(C)c2ccccc2)ccc1-n1cnc(Cl)c1 (centres unmarked) [Example 73, N-(4-(4-chloro-1H-imidazol-1-yl)-3-methoxyphenyl)-4-methyl-4-phenyl-4,5,6,7-tetrahydrobenzo[d]thiazol-2-amine 2,2,2-trifluoroacetate]
6.72	COc1cc(Nc2nc3c(s2)CCCC3(N)c2ccccc2)ccc1-n1cnc(C)n1 (centres unmarked) [Example 82, N2-(3-methoxy-4-(3-methyl-1H-1,2,4-triazol-1-yl)phenyl)-4-phenyl-4,5,6,7-tetrahydrobenzo[d]thiazole-2,4-diamine]
8.22	COc1cc(Nc2nc3n(n2)CCCCC3c2ccc(F)cc2)cnc1-n1cnc(Cl)c1 (centres unmarked) [Example 86, N-(6-(4-chloro-1H-imidazol-1-yl)-5-methoxypyridin-3-yl)-9-(4-fluorophenyl)-6,7,8,9-tetrahydro-5H-[1,2,4]triazolo[1,5-a]azepin-2-amine]
7.92	COc1cc(Nc2cc3n(n2)C(c2ccc(F)cc2)CCC3)ccc1-n1cnc(Cl)c1 (centres unmarked) [Example 90, N-(4-(4-chloro-1H-imidazol-1-yl)-3-methoxyphenyl)-7-(4-fluorophenyl)-4,5,6,7-tetrahydropyrazolo[1,5-a]pyridin-2-amine]
7.96	COc1cc(Nc2nc3n(n2)CCCCC3(O)c2ccc(F)cc2)ccc1-n1cnc(Cl)c1 (centres unmarked) [Example 92, 2-(4-(4-chloro-1H-imidazol-1-yl)-3-methoxyphenylamino)-9-(4-fluorophenyl)-6,7,8,9-tetrahydro-5H-[1,2,4]triazolo[1,5-a]azepin-9-ol]

Same assay, conditions: 19 h, H4 APP751 SWE clone 8.20 cells, 19 h incubation; read-out: Activity Rating (based on Aβ42 cellular IC50 values)

pIC50	SMILES
7.00 to 8.00	COc1cc(Nc2nc3c(s2)CC2(CC3c3ccc(F)cc3)OCCO2)ccc1-n1cnc(Cl)c1 (centres unmarked) [Example 74, N-(4-(4-chloro-1H-imidazol-1-yl)-3-methoxyphenyl)-4-(4-fluorophenyl)-5,7-dihydro-4H-spiro[benzo[d]thiazole-6,2′-[1,3]dioxolan]-2-amine]
7.00 to 8.00	COc1cc(Nc2nc3c(s2)CC(=O)CC3c2ccc(F)cc2)ccc1-n1cnc(Cl)c1 (centres unmarked) [Example 75, 2-(4-(4-chloro-1H-imidazol-1-yl)-3-methoxyphenylamino)-4-(4-fluorophenyl)-4,5-dihydrobenzo[d]thiazol-6(7H)-one]
> 8.00	COc1cc(Nc2nc3c(s2)CC(O)CC3c2ccc(F)cc2)ccc1-n1cnc(Cl)c1 (centres unmarked) [Example 76, 2-(4-(4-chloro-1H-imidazol-1-yl)-3-methoxyphenylamino)-4-(4-fluorophenyl)-4,5,6,7-tetrahydrobenzo[d]thiazol-6-ol]
6.00 to 7.00	COc1cc(Nc2nc3c(s2)CC(N)CC3c2ccc(F)cc2)ccc1-n1cnc(Cl)c1 (centres unmarked) [Example 77, N2-(4-(4-chloro-1H-imidazol-1-yl)-3-methoxyphenyl)-4-(4-fluorophenyl)-4,5,6,7-tetrahydrobenzo[d]thiazole-2,6-diamine]
6.00 to 7.00	COc1cc(Nc2nc3c(s2)CC(N(C)C)CC3c2ccc(F)cc2)ccc1-n1cnc(Cl)c1 (centres unmarked) [Example 78, N2-(4-(4-chloro-1H-imidazol-1-yl)-3-methoxyphenyl)-4-(4-fluorophenyl)-N6,N6-dimethyl-4,5,6,7-tetrahydrobenzo[d]thiazole-2,6-diamine]
7.00 to 8.00	CNC1Cc2sc(Nc3ccc(-n4cnc(Cl)c4)c(OC)c3)nc2C(c2ccc(F)cc2)C1 (centres unmarked) [Example 79, N2-(4-(4-chloro-1H-imidazol-1-yl)-3-methoxyphenyl)-4-(4-fluorophenyl)-N-6-methyl-4,5,6,7-tetrahydrobenzo[d]thiazole-2,6-diamine]
6.00 to 7.00	COc1cc(Nc2nc3c(s2)CCCC3Cc2ccccc2)ccc1-n1cnc(Cl)c1 (centres unmarked) [Example 80, 4-benzyl-N-(4-(4-chloro-1H-imidazol-1-yl)-3-methoxyphenyl)-4,5,6,7-tetrahydrobenzo[d]thiazol-2-amine 2,2,2-trifluoroacetate]
7.00 to 8.00	COc1cc(Nc2nc3c(s2)CCCC3(O)c2ccccc2)ccc1-n1cnc(C)n1 (centres unmarked) [Example 81, 2-(3-methoxy-4-(3-methyl-1H-1,2,4-triazol-1-yl)phenylamino)-4-phenyl-4,5,6,7-tetrahydrobenzo[d]thiazol-4-ol]
6.00 to 7.00	COc1cc(Nc2nc3c(s2)CCCC3(NCc2ccc(Cl)cc2)c2ccccc2)ccc1-n1cnc(Cl)c1 (centres unmarked) [Example 83, N2-(4-(4-chloro-1H-imidazol-1-yl)-3-methoxyphenyl)-N4-(4-chlorobenzyl)-4-phenyl-4,5,6,7-tetrahydrobenzo[d]thiazole-2,4-diamine]
7.00 to 8.00	COc1cc(Nc2nc3c(s2)CC(OC)(OC)CC3c2ccc(F)cc2)ccc1-n1cnc(Cl)c1 (centres unmarked) [Example 84, N-(4-(4-chloro-1H-imidazol-1-yl)-3-methoxyphenyl)-4-(4-fluorophenyl)-6,6-dimethoxy-4,5,6,7-tetrahydrobenzo[d]thiazol-2-amine]
7.00 to 8.00	COc1cc(Nc2nc3c(s2)CCCCC3c2ccc(F)cc2)ccc1-n1cnc(Cl)c1 (centres unmarked) [Example 85, N-(4-(4-chloro-1H-imidazol-1-yl)-3-methoxyphenyl)-4-(4-fluorophenyl)-5,6,7,8-tetrahydro-4H-cyclohepta[d]thiazol-2-amine 2,2,2-trifluoroacetate]
7.00 to 8.00	COc1cc(Nc2nc3n(n2)C(c2ccc(F)cc2)CCC3)ccc1-n1cnc(Cl)c1 (centres unmarked) [Example 89, N-(4-(4-chloro-1H-imidazol-1-yl)-3-methoxyphenyl)-5-(4-fluorophenyl)-5,6,7,8-tetrahydro-[1,2,4]triazolo[1,5-a]pyridin-2-amine 2,2,2-trifluoroacetate]
7.00 to 8.00	Cc1ncnn1-c1ccc(Nc2nc3n(n2)CCCCC3c2ccc(F)cc2)cc1F (centres unmarked) [Example 93, N-(3-fluoro-4-(5-methyl-1H-1,2,4-triazol-1-yl)phenyl)-9-(4-fluorophenyl)-6,7,8,9-tetrahydro-5H-[1,2,4]triazolo[1,5-a]azepin-2-amine]
> 8.00	Cc1ncn(-c2ccc(Nc3nc4n(n3)CCCCC4c3ccc(OC(F)(F)F)cc3)cc2F)n1 (centres unmarked) [Example 96, N-(3-fluoro-4-(3-methyl-1H-1,2,4-triazol-1-yl)phenyl)-9-(4-(trifluoromethoxy)phenyl)-6,7,8,9-tetrahydro-5H-[1,2,4]triazolo[1,5-a]azepin-2-amine]
7.00 to 8.00	Cc1ncnn1-c1ccc(Nc2nc3n(n2)CCCCC3c2ccc(OC(F)(F)F)cc2)cc1F (centres unmarked) [Example 99, N-(3-fluoro-4-(5-methyl-1H-1,2,4-triazol-1-yl)phenyl)-9-(4-(trifluoromethoxy)phenyl)-6,7,8,9-tetrahydro-5H-[1,2,4]triazolo[1,5-a]azepin-2-amine]
> 8.00	COc1cc(Nc2nc3n(n2)CCCCC3c2ccc(OC(C)C)cc2)ccc1-n1cnc(Cl)c1 (centres unmarked) [Example 102, N-(4-(4-chloro-1H-imidazol-1-yl)-3-methoxyphenyl)-9-(4-isopropoxyphenyl)-6,7,8,9-tetrahydro-5H-[1,2,4]triazolo azepin-2-amine]
7.00 to 8.00	COc1cc(Nc2nc3n(n2)CCCCC3c2ccc(OCC(F)(F)F)cc2)ccc1-n1cnc(Cl)c1 (centres unmarked) [Example 105, N-(4-(4-chloro-1H-imidazol-1-yl)-3-methoxyphenyl)-9-(4-(2,2,2-trifluoroethoxy)phenyl)-6,7,8,9-tetrahydro-5H-[1,2,4]triazolo[1,5-a]azepin-2-amine]
7.00 to 8.00	Cc1ncn(-c2c(F)cc(Nc3nc4n(n3)CCCCC4c3ccc(OC(F)(F)F)cc3)cc2F)n1 (centres unmarked) [Example 108, N-(3,5-difluoro-4-(3-methyl-1H-1,2,4-triazol-1-yl)phenyl)-9-(4-(trifluoromethoxy)phenyl)-6,7,8,9-tetrahydro-5H-[1,2,4]triazolo[1,5-a]azepin-2-amine]
